A short description of series [1]: DPPH radical-scavenging assay (antioxidant effect). The following applies: 100 μM DPPH in ethanol, 37° C., 30 minutes. The method, then: For investigation of the antioxidant effect of theasinensin A, the effect of inhibiting 2,2-diphenyl-1-picrylhydrazyl (DPPH) was tested as follows.
The 2,2-diphenyl-1-picrylhydrazyl (DPPH, Sigma D9132) radical dissolved in an organic solvent has the maximum absorbance at 515 nm. Since an antioxidant substance scavenges the DPPH radical and turns it colorless, antioxidant effect can be compared by measuring the DPPH radical-scavenging activity of theasinensin A through DPPH assay.
First, theasinensin A (TSA) was dissolved in ethanol such that the concentration of the theasinensin A (TSA) was 0.3125, 0.625, 1.25, 2.5, 5 and 10 ppm, respectively. The solutions of different concentrations were added to a 96-well plate, 10 μL each. Then, after adding 190 μL of 100 μM DPPH completely dissolved in ethanol to each solution and storing at 37° C. for 30 minutes, absorbance was measured at 515 nm.
DPPH assay was conducted in the same manner for 0.625, 1.25, 2.5, 5 and 10 ppm of vitamin C (Vit.C) as positive control groups and a negative control group (N.T.) not treated with theasinensin A (TSA) or vitamin C (Vit.C).

In series [2] the test system is melanin production in B16 cells. Put plainly: Inhibition of intra/extracellular melanin production in α-MSH-treated B16 cells. It is filed as cell-based. As to conditions: 72 hours; for extracellular melanin content compared to the control group treated only with α-MSH / intracellular melanin content compared to the control group treated only with α-MSH: B16 cells, 200 nM α-MSH, 2.5, 5 or 10 ppm. The protocol: For investigation of the skin-brightening effect of theasinensin A, the effect of inhibiting intra/extracellular melanin production was tested as follows.
First, after treating B16 cells (ATCC, Cat No CRL-6475) with 200 nM of α-melanocyte-stimulating hormone (α-MSH) and with theasinensin A as an example of the present disclosure or EGCG as a comparative example at nontoxic concentrations of 10 ppm or lower (2.5, 5 or 10 ppm), the intracellular and extracellular melanin contents 72 hours after the treatment were measured by correcting to the protein contents, and represented as % of melanin contents with respect to a non-theasinensin A-treated control group.
The intracellular melanin content is shown in FIG. 5 (TSA) and FIG. 6 (EGCG), and the extracellular melanin content is shown in FIG. 7 (TSA) and FIG. 8 (EGCG).

Series [3] in a line: Stability of the active ingredient in solubilized formulations (remaining titer by HPLC). Format: physicochemical. As to conditions: stored at 25° C. The protocol:
The following experiment was conducted to investigate the stability of theasinensin A as an active ingredient.
First, a solubilized formulation comprising the theasinensin A prepared in Preparation Example (Example 1) and a solubilized formulation comprising EGCG (Comparative Example 1) were prepared with the following compositions.
Then, the titer of theasinensin A or EGCG remaining in the formulations of Example 1 and Comparative Example 1 was analyzed by high-performance liquid chromatography (HPLC) with 1-week intervals. Specifically, after storing 10 mL of each composition of Example 1 and Comparative Example 1 at 25° C. and sonicating the same with 1-week intervals after diluting 10 fold with methanol followed by filtering, the content was analyzed by HPLC.

Series [4] relates to matrix metalloproteinase-1 (MMP-1) expression in UVB-irradiated HS68 cells. Put plainly: Inhibition of MMP-1 expression in UVB-irradiated HS68 cells (ELISA). The following applies: 48 hours. It is filed as cell-based, human. The protocol:
For investigation of the effect of reducing skin wrinkles and enhancing skin elasticity of theasinensin A, the effect of inhibiting the expression of matrix metalloproteinase-1 (MMP-1), which is a collagenase in the human body, was tested as follows.
First, a cell culture was prepared by treating UVB-irradiated HS68 cells (ATCC, Cat No CRL-1635) with the theasinensin A prepared in Preparation Example at 2.5, 5 or 10 ppm. After culturing HS68 cells (ATCC, Cat No CRL-1635) in a separate medium and adding phosphate-buffered saline (PBS) thereto after removing the medium, UVB was irradiated with an intensity of 30 mJ/cm^2. The UVB-irradiated cells were treated with the previously prepared theasinensin A-treated culture and cultured for 48 hours in an incubator. After recovering the culture, MMP-1 expression level was measured using a MMP-1 ELISA kit (Amersham, RPN2610).

Where [5] appears, read: about 4 weeks later, solubilized formulation with 0.02 wt % active (Example 1 / Comparative Example 1).

On to `O=C(O[C@@H]1Cc2c(O)cc(O)cc2O[C@@H]1c1cc(O)c(O)c(O)c1-c1c([C@H]2Oc3cc(O)cc(O)c3C[C@H]2OC(=O)c2cc(O)c(O)c(O)c2)cc(O)c(O)c1O)c1cc(O)c(O)c(O)c1` [theasinensin A], for which the “concentration at which DPPH activity was inhibited significantly” value in series [1] is not below 0.3 ppm. Moreover, the “IC50 of DPPH activity inhibition” value in series [1] (absorbance at 515 nm) was 5.9 ppm. For the same compound, in series [2], the “extracellular melanin content compared to the control group treated only with α-MSH” value is reported as “decreased melanin content” and the “intracellular melanin content compared to the control group treated only with α-MSH” value is given as “decreased melanin content”. In series [2] (Mus musculus, 10 ppm, B16 cells with 200 nM α-MSH), this compound gave an inhibition at 10 ppm of approximately 30%. Also, the “amount of active ingredient remaining in the solubilized formulation (of total amount used)” value in series [3] (setting [5]) was not below 87 wt %. Further, the “inhibition of MMP-1 expression” value in series [4] (UVB-irradiated (30 mJ/cm^2) HS68 cells, 2.5, 5 or 10 ppm, concentration-dependent) is listed as not below 50%. The “concentration at which MMP-1 expression level was inhibited significantly” value in series [4] (UVB-irradiated HS68 cells) is recorded as not below 2.5 ppm.

As for `O=C(O[C@@H]1Cc2c(O)cc(O)cc2O[C@@H]1c1cc(O)c(O)c(O)c1)c1cc(O)c(O)c(O)c1` [EGCG, epigallocatechin gallate, reference compound], the “extracellular melanin content compared to the control group treated only with α-MSH” value in series [2] is “increased”. For the same compound, in series [2], the “intracellular melanin content compared to the control group treated only with α-MSH” value is listed as “increased”. Also, the “amount of active ingredient remaining in the solubilized formulation (of total amount used)” value in series [3] (1 week later, solubilized formulation with 0.02 wt % active (Comparative Example 1)) is recorded as “less than 80 wt %”; in series [3] (setting [5]) it was “less than 40 wt %”.

These data come from patent publication US12097276B2, “Cosmetic composition comprising theasinensin A” (AMOREPACIFIC CORPORATION, priority 2018, dated 2024).
